From paper PMC12040169 (PLOS Biology, 2025)

assay: in vitro; settings: human, hela cells, % viability

First: Cc1ccc(SCCNS(=O)(=O)c2cccc([N+](=O)[O-])c2)cc1 [CBK267508]
Second: Cc1ccc2cc(S(=O)(=O)NCCC(=O)O)ccc2c1 [CBK267569]
The viability at 28.5 h, 10 µM of the first is lower: 81.4% for the first, 96.5% for the second.

Going from `CCN(CC(=O)NCc1ccc(C)cc1)S(=O)(=O)c1ccc(C)cc1` [CBK267511] to `CS(=O)(=O)N(CC(=O)Nc1ccc(S(N)(=O)=O)cc1)Cc1ccc(Cl)cc1` [CBK267512], the viability at 28.5 h, 10 µM falls from 110% to 98.8%.

First: c1ccc(CCn2c3ccccc3c3nnc(SCc4ccc5nonc5c4)nc32)cc1 [CBK267516]
Second: N#Cc1ccc(CSc2nnc(COc3ccccc3)n2Cc2ccco2)cc1 [CBK267539]
The viability at 28.5 h, 10 µM of the first is higher: 97.4% for the first, 87.9% for the second.

Compared with `O=C(O)CCc1nn2c3ccccc3n(CC(=O)c3cccs3)c2nc1=O` [CBK267518], `O=C(O)CCc1nn2c3ccccc3nc2n(-c2ccccc2)c1=O` [CBK267520] is lower in viability at 28.5 h, 10 µM: 99.8% for the first, 90.6% for the second.

Compared with `CCOC(=O)c1c(CN2CCCC2)nc2c3ccccc3ccn12` [CBK267521C], `O=C(CCn1cnc2ccccc2c1=O)Nc1ccc(S(=O)(=O)N2CCCC2)cc1` [CBK267642] is lower in viability at 28.5 h, 10 µM: 107% for the first, 93% for the second.

Going from `Nc1cc(N)nc(SCC(=O)Nc2nonc2N)n1` [CBK267522] to `Nn1c(SCC(=O)Nc2ccc3c(c2)OCO3)nnc1-c1ccccn1` [CBK267550], the viability at 28.5 h, 10 µM rises from 89.1% to 101%.

Going from `CSc1nc(C)cc(OCC(=O)Nc2ccc(Cl)cc2)n1` [CBK267525] to `COC(=O)c1ccc(NC(=O)CN(c2ccc(F)c(Cl)c2)S(C)(=O)=O)cc1` [CBK267657], the viability at 28.5 h, 10 µM falls from 94.8% to 88.3%.

Compared with `O=C(CSc1nnc(-c2cccnc2)n1Cc1ccccc1)Nc1ccc(Br)cc1` [CBK267527], `O=C(CSc1nnc(-c2ccco2)n1Cc1ccco1)c1ccc(-c2ccccc2)cc1` [CBK267555] is lower in viability at 28.5 h, 10 µM: 94.5% for the first, 91.1% for the second.

Compared with `Cc1ccc(N2CC(C(=O)NCCc3ccc(S(N)(=O)=O)cc3)CC2=O)cc1` (stereo not drawn) [CBK267531], `COc1ccc(S(=O)(=O)NCCc2ccc(S(N)(=O)=O)cc2)cc1[N+](=O)[O-]` [CBK267598] is higher in viability at 28.5 h, 10 µM: 84.4% for the first, 94.1% for the second.

Going from `Cc1c(C(=O)Nc2ccc(S(=O)(=O)N(C)Cc3ccccc3)cc2)cccc1[N+](=O)[O-]` [CBK267534] to `O=C(Nc1ccc(S(=O)(=O)NCC2CCCO2)cc1)c1cc(-c2ccccc2)nc2ccccc12` (stereo not drawn) [CBK267537], the viability at 28.5 h, 10 µM falls from 109% to 84.3%.

First: Cc1onc(-c2ccccc2Cl)c1C(=O)Nc1ccc(S(=O)(=O)NCC2CCCO2)cc1 (stereo not drawn) [CBK267536]
Second: Cc1ccccc1-c1nc(S(=O)(=O)c2ccc(Cl)cc2)c(NCC2CCCO2)o1 (stereo not drawn) [CBK267668]
The viability at 28.5 h, 10 µM of the first is lower: 88.9% for the first, 113% for the second.

Compared with `CN1CCN(CC(=O)N2N=C(c3c(-c4ccccc4)c4cc(Cl)ccc4[nH]c3=O)CC2c2ccccc2)CC1` (stereo not drawn) [CBK267545], `O=C(COc1ccccc1)c1cn(CC(=O)N2CCc3ccccc32)c2ccccc12` [CBK267659] is higher in viability at 28.5 h, 10 µM: 88.9% for the first, 93.5% for the second.

First: COc1cc(NC(=O)CSc2ncnc3sc4c(c23)CCCC4)cc(OC)c1 [CBK267547]
Second: NS(=O)(=O)c1ccc(NC(=O)CSc2nc3sc4c(c3c(=O)n2-c2ccc(Cl)cc2)CCCC4)cc1 [CBK267577]
The viability at 28.5 h, 10 µM of the first is lower: 89.6% for the first, 91.9% for the second.

Compared with `COc1ccc(CSc2nnc(-c3ccco3)n2N)cc1` [CBK267548], `Fc1ccccc1CSc1nnc(-c2cnccn2)n1Cc1ccco1` [CBK267556] is higher in viability at 28.5 h, 10 µM: 90.3% for the first, 96.4% for the second.

Going from `Nn1c(SCC(=O)Nc2ccc3c(c2)OCCO3)nnc1-c1ccccn1` [CBK267551] to `O=C(CSc1nnc(Cc2cccs2)n1-c1ccccc1)Nc1ccc(F)c(Cl)c1` [CBK267589], the viability at 28.5 h, 10 µM rises from 87.4% to 92.3%.

First: NC(=O)CC1Nc2cccc3cccc(c23)NC1=O (stereo not drawn) [CBK267560]
Second: COC(=O)c1c(NC(=O)CC2Nc3cccc4cccc(c34)NC2=O)sc(C)c1C (stereo not drawn) [CBK267562]
The viability at 28.5 h, 10 µM of the first is higher: 75% for the first, 68.3% for the second.

Going from `CCc1cc(C(=O)OC)c(NC(=O)CC2Nc3cccc4cccc(c34)NC2=O)s1` (stereo not drawn) [CBK267563] to `COc1ccc(NC(=S)NC(=O)CN2C(=O)c3ccccc3C2=O)c([N+](=O)[O-])c1` [CBK267594], the viability at 28.5 h, 10 µM rises from 59.8% to 114%.

First: COc1cc(OC)c(S(=O)(=O)N2CCOCC2)cc1S(=O)(=O)N1CCOCC1 [CBK267564]
Second: O=C(CCn1cnc2ccccc2c1=O)Nc1ccc(S(=O)(=O)N2CCOCC2)cc1 [CBK267645]
The viability at 28.5 h, 10 µM of the first is lower: 98.1% for the first, 98.9% for the second.

First: Cn1c(=O)n(C)c2cc(S(=O)(=O)ON3C(=O)c4cccc5cc([N+](=O)[O-])cc(c45)C3=O)ccc21 [CBK267566]
Second: O=C1NC(=O)c2cc(S(=O)(=O)NCCCO)cc3cccc1c23 [CBK267602]
The viability at 28.5 h, 10 µM of the first is lower: 91.6% for the first, 110% for the second.

First: Cn1c(=O)oc2cc(S(=O)(=O)NCCC(=O)O)ccc21 [CBK267567]
Second: Cn1c(=O)oc2cc(S(=O)(=O)NCc3ccccc3)ccc21 [CBK267568]
The viability at 28.5 h, 10 µM of the first is lower: 89.3% for the first, 90.8% for the second.

First: CC(=O)Nc1ccc(S(=O)(=O)N(C)CC(=O)O)cc1 [CBK267570]
Second: COc1ccc(OC)c(NS(=O)(=O)c2ccc(C(=O)O)cc2)c1 [CBK267603]
The viability at 28.5 h, 10 µM of the first is lower: 97.8% for the first, 106% for the second.

Going from `COc1ccc(S(=O)(=O)N2CCC(C(=O)O)(c3ccccc3)CC2)cc1` [CBK267572] to `COc1ccc(C(=O)Nc2ccc(S(=O)(=O)N3CCN(C)CC3)cc2)cc1` [CBK267622], the viability at 28.5 h, 10 µM falls from 94.3% to 92.8%.

Going from `CC1(C)CC(=O)c2c(O)cc(OCC(=O)c3ccc(Cl)c(Cl)c3)cc2O1` [CBK267573] to `CCn1c(COc2ccc(C(=O)O)cc2)nc2ccccc21` [CBK267647], the viability at 28.5 h, 10 µM rises from 89.1% to 91.7%.

First: O=C(CSc1nnc(SCc2cccc3ccccc23)s1)Nc1ccccc1C(F)(F)F [CBK267575]
Second: O=C(CSc1nnc(-c2ccc(F)cc2)n1-c1ccccc1)Nc1cccc2ccccc12 [CBK267592]
The viability at 28.5 h, 10 µM of the first is higher: 103% for the first, 89.8% for the second.

Going from `Cc1ccc(N(Cc2ccco2)C(=O)c2cccc(S(=O)(=O)N(C)C)c2)cc1` [CBK267578] to `CN(C)S(=O)(=O)c1cccc(C(=O)N(Cc2ccc(F)cc2)Cc2ccco2)c1` [CBK267579], the viability at 28.5 h, 10 µM falls from 91.6% to 88.8%.

First: CN(C)S(=O)(=O)c1cccc(-c2cn3cccnc3n2)c1 [CBK267580]
Second: Cc1ccc(O)c(NC(=O)c2nc3ncccn3n2)c1 [CBK267629]
The viability at 28.5 h, 10 µM of the first is lower: 71.4% for the first, 99.6% for the second.

First: COc1cc(C2c3c(oc4ccc(Cl)cc4c3=O)C(=O)N2CC2CCCO2)ccc1OCc1ccccc1 (stereo not drawn) [CBK267581]
Second: Cc1c(C(=O)Nc2nc(-c3ccc(S(=O)(=O)N4CCOCC4)cc3)cs2)oc2ccc(Cl)cc12 [CBK267663]
The viability at 28.5 h, 10 µM of the first is lower: 89.5% for the first, 93.7% for the second.

Compared with `CC(C)OC(=O)CSc1nnc(-c2cnccn2)n1Cc1ccco1` [CBK267586], `C(=C\c1ccccc1)/CSc1nnc(-c2cnccn2)n1Cc1ccco1` [CBK267587] is higher in viability at 28.5 h, 10 µM: 117% for the first, 119% for the second.

Compared with `Cc1ccc(-c2csc3ncnc(SCc4nc5ccccc5[nH]4)c23)cc1` [CBK267590], `Cc1ccc2[nH]c(/C(C#N)=C\c3cn(CC(=O)Nc4ccccc4)c4ccccc34)nc2c1` [CBK267612] is higher in viability at 28.5 h, 10 µM: 83.5% for the first, 105% for the second.

First: Cc1cc(NS(=O)(=O)c2ccc(NC(=O)c3cc4ccccc4o3)cc2)no1 [CBK267597]
Second: COc1ccc2oc(-c3ccc(NC(=O)c4cccc5ccccc45)cc3)nc2c1 [CBK267610]
The viability at 28.5 h, 10 µM of the first is lower: 88% for the first, 110% for the second.

First: CS(=O)(=O)N1CCN(c2ccccc2NC(=O)c2cccnc2)CC1 [CBK267604]
Second: CS(=O)(=O)N1CCN(c2ccccc2NC(=O)CSc2ccc(Cl)cc2)CC1 [CBK267607]
The viability at 28.5 h, 10 µM of the first is higher: 119% for the first, 83.7% for the second.

First: O=C(NC(=S)Nc1cccc2ncccc12)c1ccc(N2CCOCC2)c([N+](=O)[O-])c1 [CBK267608]
Second: Cc1ccc([N+](=O)[O-])cc1NC(=O)CCn1cnc2ccccc2c1=O [CBK267644]
The viability at 28.5 h, 10 µM of the first is lower: 87.8% for the first, 106% for the second.

Compared with `C=CCOc1ccc2ccccc2c1CNc1nn[nH]n1` [CBK267619], `COc1cc(CNCc2cccs2)ccc1OCC(N)=O` [CBK267620C] is higher in viability at 28.5 h, 10 µM: 92.8% for the first, 95.7% for the second.

Compared with `O=C(Nc1cccc(Cl)c1)Nc1ccccc1NC(=O)Nc1cccc(Cl)c1` [CBK267624], `O=C(Cn1c(=O)oc2ccccc21)Nc1cccc(C(=O)O)c1` [CBK267641] is higher in viability at 28.5 h, 10 µM: 92.4% for the first, 97.4% for the second.

Going from `O=C(CCSc1nc(-c2ccco2)cc(C(F)(F)F)n1)N1CCN(c2ccccn2)CC1` [CBK267626] to `O=C(CCSc1nc(-c2ccco2)cc(C(F)(F)F)n1)Nc1ccc2c(c1)OCO2` [CBK267627], the viability at 28.5 h, 10 µM rises from 99% to 104%.

First: COc1ccc(-c2cc(C(F)(F)F)nc(SCC(=O)N(C)c3ccccc3)n2)cc1OC [CBK267628]
Second: Cc1nn(Cc2c(F)cccc2Cl)c(C)c1NC(=O)c1cnn2c(C(F)F)cc(-c3ccccc3)nc12 [CBK267634]
The viability at 28.5 h, 10 µM of the first is higher: 112% for the first, 95.3% for the second.

First: CCOC(=O)c1c(NC(=O)c2nc3ncccn3n2)sc(C)c1C [CBK267630]
Second: Cc1nn(Cc2cccc(Oc3ccccc3)c2)c(C)c1NC(=O)c1nc2ncccn2n1 [CBK267632]
The viability at 28.5 h, 10 µM of the first is higher: 114% for the first, 89% for the second.

Compared with `Cc1ccccc1Cn1nc(C)c(NC(=O)c2nc3n(n2)C(C(F)F)CC(C)N3)c1C` (stereo not drawn) [CBK267633], `CC1CCCC(C)N1S(=O)(=O)c1ccc(NC(=O)CCn2cnc3ccccc3c2=O)cc1` (stereo not drawn) [CBK267643] is higher in viability at 28.5 h, 10 µM: 92.6% for the first, 95.5% for the second.

Going from `O=C(O)c1cc2ncc(CCO)cn2n1` [CBK267635] to `O=C(NCCCO)c1cc2ccccc2[nH]1` [CBK267638], the viability at 28.5 h, 10 µM falls from 99.6% to 87.9%.

Compared with `O=C(NCC1CCNCC1)c1ccncc1` [CBK267637C], `NCCCNC(=O)c1cc2ccccc2[nH]1` [CBK267639] is lower in viability at 28.5 h, 10 µM: 95% for the first, 88.4% for the second.

Going from `O=C(Cn1cc(C(=O)COc2ccccc2)c2ccccc21)Nc1ccccc1` [CBK267653] to `COC(=O)CN(c1ccc(Cl)cc1Cl)S(C)(=O)=O` [CBK267654], the viability at 28.5 h, 10 µM falls from 110% to 105%.

same assay, conditions: human, hela cells, % viability, bulk resorufin, single well

First: O=C(Cn1cc(C(=O)c2ccco2)c2ccccc21)NCCc1c[nH]c2ccccc12 [CBK267509]
Second: NC(=O)Cn1cc(C(=O)COc2ccccc2)c2ccccc21 [CBK267650]
The viability at 28.5 h, 10 µM of the first is higher: 97.9% for the first, 95.2% for the second.
